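Briefly, cells in 96-well plates were exposed to five compound concentrations for 48 h, and endpoints were estimated by linear interpolation. The concentration for 50% growth inhibition is given as GI50. At the TGI there is no net growth.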
Columns and labels:
Experiment in all cases: growth of human tumour cells (NCI), 48 h
[1] = test system: M14 melanoma
[2] = test system: HOP-62 NSCLC
[3] = test system: A549 NSCLC
[4] = test system: T-47D breast
[5] = test system: MCF7 breast
[6] = test system: U251 CNS
[7] = test system: NCI-H226 lung
[8] = test system: A498 renal
[9] = test system: OVCAR-8 ovarian
[10] = test system: ACHN renal
[11] = test system: OVCAR-4 ovarian
[12] = test system: HCC-2998 colon
[13] = test system: PC-3 prostate
[14] = test system: KM12 colon
[15] = test system: CAKI-1 renal
[16] = test system: SNB-75 CNS
[17] = test system: SR leukemia
[18] = test system: LOX IMVI melanoma
[19] = test system: COLO 205 colon
[20] = test system: UACC-62 melanoma
[21] = test system: SNB-19 CNS
[22] = test system: TK-10 renal
[23] = test system: SF-295 CNS
[24] = test system: NCI-H23 lung
[25] = test system: MDA-MB-468 breast
[26] = test system: DU-145 prostate
[27] = test system: HS 578T breast
[28] = test system: EKVX NSCLC
[29] = test system: CCRF-CEM leukemia
[30] = test system: HCT-116 colon
[31] = test system: HT29 colon
[32] = test system: SK-MEL-28 melanoma
[33] = test system: SW-620 colon
[34] = test system: NCI-H460 lung
[35] = test system: OVCAR-3 ovarian
[36] = test system: 786-0 renal
[37] = test system: SK-MEL-2 melanoma
[38] = test system: OVCAR-5 ovarian
[39] = test system: MOLT-4 leukemia
[40] = test system: K-562 leukemia
[41] = test system: BT-549 breast
[42] = test system: SK-MEL-5 melanoma
[43] = test system: MDA-MB-231 breast
[44] = test system: RXF 393 renal
[45] = test system: UACC-257 melanoma
[46] = test system: HL-60(TB) leukemia
[47] = test system: RPMI-8226 leukemia
[48] = test system: SK-OV-3 ovarian
[49] = test system: HOP-92 NSCLC
[50] = test system: UO-31 renal
[51] = test system: MDA-MB-435
[52] = test system: NCI-H522 lung
[53] = test system: SF-539 CNS
[54] = test system: MALME-3M melanoma
[55] = test system: HCT-15 colon
[56] = test system: SF-268 CNS
[57] = test system: SN12C renal
[58] = test system: IGROV1 ovarian
[59] = test system: NCI/ADR-RES ovarian

With O=C(/C=C/c1cccc(Br)c1)c1nc2ccccc2n1Cc1ccc(Br)cc1 the GI50 [1] was 1.77 µM, the TGI [1] was 3.59 µM and the GI50 [2] was 2.16 µM. The TGI [2] was 4.76 µM, the GI50 [3] was 3.97 µM and the TGI [3] was greater than 100 µM. The GI50 [4] was 2.33 µM, the TGI [4] was 9.62 µM and the GI50 [5] was 1.7 µM. The TGI [5] was 5.71 µM, the GI50 [6] was 1.7 µM and the TGI [6] was 3.38 µM. It also gave a GI50 [7] of 2.45 µM, a TGI [7] of 6.13 µM and a GI50 [8] of 13.5 µM. It also gave a TGI [8] of 28.1 µM, a GI50 [9] of 2.15 µM and a TGI [9] of 5.71 µM. The GI50 [10] was 2.41 µM, the TGI [10] was 6.53 µM and the GI50 [11] was 4.07 µM. For the same molecule, the TGI [11] was greater than 100 µM, the GI50 [12] was 1.69 µM and the TGI [12] was 3.12 µM. For the same molecule, the GI50 [13] was 3.3 µM, the TGI [13] was 14.9 µM and the GI50 [14] was 2.53 µM. The TGI [14] was 7.44 µM, the GI50 [15] was 1.85 µM and the TGI [15] was 5.35 µM. For the same molecule, the GI50 [16] was 3.4 µM, the TGI [16] was 25.2 µM and the GI50 [17] was 2.53 µM. It also gave a TGI [17] of 8.96 µM, a GI50 [18] of 1.5 µM and a TGI [18] of 2.9 µM. The GI50 [19] was 1.99 µM, the TGI [19] was 4.11 µM and the GI50 [20] was 1.54 µM. The TGI [20] was 3.28 µM, the GI50 [21] was 1.77 µM and the TGI [21] was 3.64 µM. For the same molecule, the GI50 [22] was 3.07 µM, the TGI [22] was 11.6 µM and the GI50 [23] was 2.07 µM. It also gave a TGI [23] of 5.11 µM, a GI50 [24] of 1.77 µM and a TGI [24] of 3.99 µM. For the same molecule, the GI50 [25] was 1.87 µM, the TGI [25] was 3.85 µM and the GI50 [26] was 4.1 µM. It also gave a TGI [26] of 15.9 µM, a GI50 [27] of 3.71 µM and a TGI [27] greater than 100 µM. The GI50 [28] was 2.4 µM, the TGI [28] was 7.64 µM and the GI50 [29] was 2.09 µM. It also gave a TGI [29] greater than 100 µM, a GI50 [30] of 1.67 µM and a TGI [30] of 3.14 µM. The GI50 [31] was 2.13 µM, the TGI [31] was 4.9 µM and the GI50 [32] was 1.82 µM. For the same molecule, the TGI [32] was 3.68 µM, the GI50 [33] was 1.6 µM and the TGI [33] was 3.59 µM. For the same molecule, the GI50 [34] was 1.77 µM, the TGI [34] was 3.87 µM and the GI50 [35] was 1.56 µM. It also gave a TGI [35] of 3.3 µM, a GI50 [36] of 1.86 µM and a TGI [36] of 3.7 µM. For the same molecule, the GI50 [37] was 1.66 µM, the TGI [37] was 3.29 µM and the GI50 [38] was 2.06 µM. It also gave a TGI [38] of 4.08 µM, a GI50 [39] of 2.11 µM and a TGI [39] of 9.16 µM. The GI50 [40] was 2.6 µM, the TGI [40] was greater than 100 µM and the GI50 [41] was 1.77 µM. It also gave a TGI [41] of 3.55 µM, a GI50 [42] of 1.7 µM and a TGI [42] of 3.55 µM. It also gave a GI50 [43] of 2.06 µM, a TGI [43] of 4.61 µM and a GI50 [44] of 1.54 µM. It also gave a TGI [44] of 2.95 µM, a GI50 [45] of 3.04 µM and a TGI [45] of 12 µM. It also gave a GI50 [46] of 1.75 µM, a TGI [46] of 5.12 µM and a GI50 [47] of 2.39 µM. It also gave a TGI [47] of 8.27 µM, a GI50 [48] of 14.4 µM and a TGI [48] greater than 100 µM. The GI50 [49] was 1.6 µM, the TGI [49] was 6.46 µM and the GI50 [50] was 1.37 µM. The TGI [50] was 2.78 µM, the GI50 [51] was 2.01 µM and the TGI [51] was 4.79 µM. It also gave a GI50 [52] of 1.73 µM, a TGI [52] of 3.48 µM and a GI50 [53] of 1.99 µM. It also gave a TGI [53] of 3.92 µM, a GI50 [54] of 1.91 µM and a TGI [54] of 3.97 µM. The GI50 [55] was 1.56 µM, the TGI [55] was 3.19 µM and the GI50 [56] was 4.93 µM. The TGI [56] was 71.7 µM, the GI50 [57] was 3.42 µM and the TGI [57] was 12.9 µM. It also gave a GI50 [58] of 2.16 µM and a TGI [58] of 5.4 µM.

For CC(=O)Nc1cccc(-c2nc3cc(-c4ccc(O)cc4)ccc3n2C)c1, the GI50 [1] was 12.9 µM, the TGI [1] was 26.8 µM and the GI50 [2] was 28.1 µM. The TGI [2] was 65.4 µM, the GI50 [3] was 12.1 µM and the TGI [3] was 60.1 µM. For the same molecule, the GI50 [4] was 2.91 µM, the TGI [4] was 11.9 µM and the GI50 [5] was 4.38 µM. For the same molecule, the TGI [5] was 22.2 µM, the GI50 [6] was 18.3 µM and the TGI [6] was greater than 100 µM. For the same molecule, the GI50 [7] was 7.76 µM, the TGI [7] was 51.7 µM and the GI50 [8] was 19.2 µM. It also gave a TGI [8] of 67.6 µM, a GI50 [9] of 10.8 µM and a TGI [9] of 26.9 µM. For the same molecule, the GI50 [10] was 5.17 µM, the TGI [10] was 47.7 µM and the GI50 [11] was 3.64 µM. The TGI [11] was 27.2 µM, the GI50 [59] was 21 µM and the TGI [59] was 63.5 µM. For the same molecule, the GI50 [12] was 17.1 µM, the TGI [12] was 74 µM and the GI50 [13] was 13.7 µM. It also gave a TGI [13] of 65 µM, a GI50 [14] of 12.8 µM and a TGI [14] of 29.7 µM. For the same molecule, the GI50 [15] was 11.5 µM, the TGI [15] was 49.2 µM and the GI50 [16] was 9.43 µM. The TGI [16] was 46.3 µM, the GI50 [17] was 12.3 µM and the TGI [17] was greater than 100 µM. It also gave a GI50 [18] of 14.3 µM, a TGI [18] of 31.7 µM and a GI50 [19] of 17.3 µM. The TGI [19] was 34.2 µM, the GI50 [20] was 7.42 µM and the TGI [20] was 24.9 µM. It also gave a GI50 [21] of 27.2 µM, a TGI [21] greater than 100 µM and a GI50 [22] of 19.4 µM. The TGI [22] was 81.5 µM, the GI50 [23] was 10.1 µM and the TGI [23] was 36.2 µM. It also gave a GI50 [24] of 10.6 µM, a TGI [24] of 31 µM and a GI50 [25] of 1.83 µM. It also gave a TGI [25] of 7.12 µM, a GI50 [26] of 16.6 µM and a TGI [26] of 65.3 µM. The GI50 [27] was 19.7 µM, the TGI [27] was greater than 100 µM and the GI50 [28] was 13.8 µM. The TGI [28] was 51 µM, the GI50 [29] was 6.06 µM and the TGI [29] was 50 µM. For the same molecule, the GI50 [30] was 15.1 µM, the TGI [30] was 50.9 µM and the GI50 [31] was 24 µM. It also gave a TGI [31] greater than 100 µM, a GI50 [32] of 11.4 µM and a TGI [32] of 29.6 µM. The GI50 [33] was 16.8 µM, the TGI [33] was 42.9 µM and the GI50 [34] was 11.6 µM. For the same molecule, the TGI [34] was 36.4 µM, the GI50 [35] was 16.2 µM and the TGI [35] was 63.5 µM. For the same molecule, the GI50 [36] was 28.2 µM, the TGI [36] was greater than 100 µM and the GI50 [37] was 8.73 µM. The TGI [37] was 26.1 µM, the GI50 [38] was 25.8 µM and the TGI [38] was 93.5 µM. It also gave a GI50 [39] of 4.6 µM, a TGI [39] of 29.5 µM and a GI50 [40] of 8.91 µM. The TGI [40] was greater than 100 µM, the GI50 [41] was 5.07 µM and the TGI [41] was 17.7 µM. The GI50 [42] was 3.24 µM, the TGI [42] was 11.6 µM and the GI50 [43] was 23.7 µM. It also gave a TGI [43] greater than 100 µM, a GI50 [44] of 11.4 µM and a TGI [44] of 39.5 µM. The GI50 [45] was 3.76 µM, the TGI [45] was 15.5 µM and the GI50 [46] was 10.6 µM. The TGI [46] was 39.7 µM, the GI50 [47] was 4.7 µM and the TGI [47] was 23.8 µM. The GI50 [48] was 25.8 µM, the TGI [48] was 96.5 µM and the GI50 [49] was 11.7 µM. For the same molecule, the TGI [49] was greater than 100 µM, the GI50 [50] was 10.8 µM and the TGI [50] was 31.8 µM. For the same molecule, the GI50 [51] was 5.29 µM, the TGI [51] was 19.3 µM and the GI50 [52] was 5.16 µM. The TGI [52] was 20.7 µM, the GI50 [53] was 16.1 µM and the TGI [53] was 62.8 µM. The GI50 [54] was 5.01 µM, the TGI [54] was 18.6 µM and the GI50 [55] was 18.8 µM. The TGI [55] was 68.8 µM, the GI50 [56] was 17.7 µM and the TGI [56] was greater than 100 µM. It also gave a GI50 [57] of 17.8 µM, a TGI [57] greater than 100 µM and a GI50 [58] of 14.4 µM. It also gave a TGI [58] of 46.6 µM.

From PubChem BioAssay (NCI)
